Test results reported in doi:10.1101/2023.01.01.522448v1 (biorxiv, 2023).

System: PrASNase (glutaminase-free recombinant L-asparaginase)
Assay: Nesslerization
Format: biochemical, Metapseudomonas resinovorans
Conditions: pH 8.6, 37°C; 500 nM enzyme; 2-20 mM substrate

NC(=O)C[C@H](N)C(=O)O [L-asparagine]
Km: 9.49 mM
